target: T1, MAGL (Homo sapiens, UniProt Q99685); experiment: MAGL inhibition, 2-AG assay (hydrolysis of 2-arachidonoylglycerol, arachidonic acid by mass spectrometry); assay type: biochemical; conditions: 2-AG assay (footnote [b])
T1 sequence (Q99685 1-303): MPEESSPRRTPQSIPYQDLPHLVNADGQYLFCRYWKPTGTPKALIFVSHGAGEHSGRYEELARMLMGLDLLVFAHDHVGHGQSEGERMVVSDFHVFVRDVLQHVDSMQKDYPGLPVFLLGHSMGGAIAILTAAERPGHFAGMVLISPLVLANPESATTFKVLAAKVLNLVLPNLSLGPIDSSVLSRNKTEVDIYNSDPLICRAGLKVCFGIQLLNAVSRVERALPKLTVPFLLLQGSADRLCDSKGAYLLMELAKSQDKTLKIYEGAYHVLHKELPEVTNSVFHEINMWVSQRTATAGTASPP
Procedure, shortened: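 Human MAGL […] was preincubated 15 min at RT with compound ([…], 3-fold steps) in 50 mM Tris, 1 mM EDTA, 0.01% Tween. 2-AG (8 μM) was then added for 30 min at RT. Arachidonic acid was quantified by RapidFire SPE–triple quadrupole MS in negative ESI as its ratio to a d8-arachidonic acid standard.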

IC50 [nM]	SMILES
48	O=C1CO[C@H]2CCN(C(=O)N3CCC(c4c[nH]c5ccc(F)cc45)C3)C[C@H]2N1 (stereo partly drawn) [Example 208, (4aR,8aS)-6-(3-(5-Fluoro-1H-indol-3-yl)pyrrolidine-1-carbonyl)hexahydro-2H-pyrido[4,3-b][1,4]oxazin-3(4H)-one]
0.8	O=C1CO[C@H]2CCN(C(=O)N3CCC(c4cn(Cc5ccccc5)c5ccc(Cl)cc45)C3)C[C@H]2N1 (stereo partly drawn) [Example 209, (4aR,8aS)-6-(3-(1-Benzyl-5-chloro-1H-indol-3-yl)pyrrolidine-1-carbonyl)hexahydro-2H-pyrido[4,3-b][1,4]oxazin-3(4H)-one]
112	O=C1CO[C@H]2CCN(C(=O)N3CC(c4ccc(C(F)(F)F)cc4F)C3)C[C@H]2N1 [Example 210, (4aR,8aS)-6-(3-(2-Fluoro-4-(trifluoromethyl)phenyl)azetidine-1-carbonyl)hexahydro-2H-pyrido[4,3-b][1,4]oxazin-3(4H)-one]
11	O=C1CO[C@H]2CCN(C(=O)N3CC(c4ccc(OC(F)(F)F)c(Cl)c4)C3)C[C@H]2N1 [Example 211, (4aR,8aS)-6-(3-(3-Chloro-4-(trifluoromethoxy)phenyl)azetidine-1-carbonyl)hexahydro-2H-pyrido[4,3-b][1,4]oxazin-3(4H)-one]
3	O=C1CO[C@H]2CCN(C(=O)N3CC(c4ccc(N5CC(OCC6CC6)C5)cc4)C3)C[C@H]2N1 [Example 212, (4aR,8aS)-6-[3-[4-[3-(Cyclopropylmethoxy)azetidin-1-yl]phenyl]azetidine-1-carbonyl]-4,4a,5,7,8,8a-hexahydropyrido[4,3-b][1,4]oxazin-3-one]
114	N#Cc1cc(C2CN(C(=O)N3CC[C@@H]4OCC(=O)N[C@@H]4C3)C2)ccc1OC(F)(F)F [Example 213, 5-(1-((4aR,8aS)-3-Oxooctahydro-2H-pyrido[4,3-b][1,4]oxazine-6-carbonyl)azetidin-3-yl)-2-(trifluoromethoxy)benzonitrile]
62	O=C1CO[C@H]2CCN(C(=O)N3CC(c4ccc(C5(CO)CC5)cc4)C3)C[C@H]2N1 [Example 214, (4aR,8aS)-6-(3-(4-(1-(Hydroxymethyl)cyclopropyl)phenyl)azetidine-1-carbonyl)hexahydro-2H-pyrido[4,3-b][1,4]oxazin-3(4H)-one]
550	Cn1ncc2c(C3CN(C(=O)N4CC[C@@H]5OCC(=O)N[C@@H]5C4)C3)cccc21 [Example 215, (4aR,8aS)-6-(3-(1-Methyl-1H-indazol-4-yl)azetidine-1-carbonyl)hexahydro-2H-pyrido[4,3-b][1,4]oxazin-3(4H)-one]
23	O=C1CO[C@H]2CCN(C(=O)N3CC(c4ccc(N5CCC(F)C5)cc4)C3)C[C@H]2N1 (stereo partly drawn) [Example 216, (4aR,8aS)-6-(3-(4-(3-Fluoropyrrolidin-1-yl)phenyl)azetidine-1-carbonyl)hexahydro-2H-pyrido[4,3-b][1,4]oxazin-3(4H)-one]
6	CC1CCN1c1ccc(C2CN(C(=O)N3CC[C@@H]4OCC(=O)N[C@@H]4C3)C2)cc1 (stereo partly drawn) [Example 217, (4aR,8aS)-6-(3-(4-(2-Methylazetidin-1-yl)phenyl)azetidine-1-carbonyl)hexahydro-2H-pyrido[4,3-b][1,4]oxazin-3(4H)-one]
54	O=C1CO[C@H]2CCN(C(=O)N3CCC(C(c4ccccc4)c4cccnn4)CC3)C[C@H]2N1 (stereo partly drawn) [Example 218, (4aR,8aS)-6-[4-[Phenyl(pyridazin-3-yl)methyl]piperidine-1-carbonyl]-4,4a,5,7,8,8a-hexahydropyrido[4,3-b][1,4]oxazin-3-one]
276	O=C1CO[C@H]2CCN(C(=O)N3CCC(c4ccc(OC(F)(F)F)cc4)C3)C[C@H]2N1 (stereo partly drawn) [Example 219, (4aR,8aS)-6-[3-[4-(Trifluoromethoxy)phenyl]pyrrolidine-1-carbonyl]-4,4a,5,7,8,8a-hexahydropyrido[4,3-b][1,4]oxazin-3-one]
413	Cn1ncc2ccc(C3CN(C(=O)N4CC[C@@H]5OCC(=O)N[C@@H]5C4)C3)cc21 [Example 220, (4aR,8aS)-6-(3-(1-Methyl-1H-indazol-6-yl)azetidine-1-carbonyl)hexahydro-2H-pyrido[4,3-b][1,4]oxazin-3(4H)-one]
188	O=C1CO[C@H]2CCN(C(=O)N3CC(c4ccc(O)c(Cl)c4)C3)C[C@H]2N1 [Example 223, (4aR,8aS)-6-(3-(3-Chloro-4-hydroxyphenyl)azetidine-1-carbonyl)hexahydro-2H-pyrido[4,3-b][1,4]oxazin-3(4H)-one]
6	CC1CN(c2ccc(C3CN(C(=O)N4CC[C@@H]5OCC(=O)N[C@@H]5C4)C3)cc2Cl)C1 [Example 224, (4aR,8aS)-6-(3-(3-Chloro-4-(3-methylazetidin-1-yl)phenyl)azetidine-1-carbonyl)hexahydro-2H-pyrido[4,3-b][1,4]oxazin-3(4H)-one]
100	O=C1CO[C@H]2CCN(C(=O)N3CC(c4ccc(C5COC5)cc4)C3)C[C@H]2N1 [Example 225, (4aR,8aS)-6-[3-[4-(Oxetan-3-yl)phenyl]azetidine-1-carbonyl]-4,4a,5,7,8,8a-hexahydropyrido[4,3-b][1,4]oxazin-3-one]

Further lines, the molecule ahead of its results:

SMILES	IC50 [nM]
O=C1CO[C@H]2CCN(C(=O)N3CC(c4ccc(N5CC6CCC(C5)O6)cc4)C3)C[C@H]2N1 [Example 192, (4aR,8aS)-6-(3-(4-(8-Oxa-3-azabicyclo[3.2.1]octan-3-yl)phenyl)azetidine-1-carbonyl)hexahydro-2H-pyrido[4,3-b][1,4]oxazin-3(4H)-one]	8
O=C1CO[C@H]2CCN(C(=O)N3CC(c4ccc(-c5ccc(Cl)cc5Cl)cn4)C3)C[C@H]2N1 [Example 193, (4aR,8aS)-6-(3-(5-(2,4-Dichlorophenyl)pyridin-2-yl)azetidine-1-carbonyl)hexahydro-2H-pyrido[4,3-b][1,4]oxazin-3(4H)-one]	1
O=C1CO[C@H]2CCN(C(=O)N3CC(c4ccc(N5CCCCC5)cc4)C3)C[C@H]2N1 [Example 196, (4aR,8aS)-6-[3-[4-(1-Piperidyl)phenyl]azetidine-1-carbonyl]-4,4a,5,7,8,8a-hexahydropyrido[4,3-b][1,4]oxazin-3-one]	2
CC1(O)CN(c2ccc(C3CN(C(=O)N4CC[C@@H]5OCC(=O)N[C@@H]5C4)C3)cc2)C1 [Example 199, (4aR,8aS)-6-[3-[4-(3-Hydroxy-3-methylazetidin-1-yl)phenyl]azetidine-1-carbonyl]-4,4a,5,7,8,8a-hexahydropyrido[4,3-b][1,4]oxazin-3-one]	278
CC1(F)CN(c2ccc(C3CN(C(=O)N4CC[C@@H]5OCC(=O)N[C@@H]5C4)C3)cc2)C1 [Example 200, (4aR,8aS)-6-[3-[4-(3-Fluoro-3-methyl-azetidin-1-yl)phenyl]azetidine-1-carbonyl]-4,4a,5,7,8,8a-hexahydropyrido[4,3-b][1,4]oxazin-3-one]	14
O=C1CO[C@H]2CCN(C(=O)N3CC(c4ccc(N5CC(F)C5)cc4)C3)C[C@H]2N1 [Example 201, (4aR,8aS)-6-(3-(4-(3-Fluoroazetidin-1-yl)phenyl)azetidine-1-carbonyl)hexahydro-2H-pyrido[4,3-b][1,4]oxazin-3(4H)-one]	101
O=C1CO[C@H]2CCN(C(=O)N3CC(c4ccc(OC(F)(F)F)c(F)c4)C3)C[C@H]2N1 [Example 202, (4aR,8aS)-6-(3-(3-Fluoro-4-(trifluoromethoxy)phenyl)azetidine-1-carbonyl)hexahydro-2H-pyrido[4,3-b][1,4]oxazin-3(4H)-one]	12
Cc1cc(C2CN(C(=O)N3CC[C@@H]4OCC(=O)N[C@@H]4C3)C2)ccc1OC(F)(F)F [Example 203, (4aR,8aS)-6-(3-(3-Methyl-4-(trifluoromethoxy)phenyl)azetidine-1-carbonyl)hexahydro-2H-pyrido[4,3-b][1,4]oxazin-3(4H)-one]	0.8
O=C1CO[C@H]2CCN(C(=O)N3CC(c4cc(F)c(OC(F)(F)F)c(F)c4)C3)C[C@H]2N1 [Example 204, (4aR,8aS)-6-(3-(3,5-Difluoro-4-(trifluoromethoxy)phenyl)azetidine-1-carbonyl)hexahydro-2H-pyrido[4,3-b][1,4]oxazin-3(4H)-one]	10
O=C1CO[C@H]2CCN(C(=O)N3CC(c4ccc(OC(F)(F)F)cc4Cl)C3)C[C@H]2N1 [Example 205, (4aR,8aS)-6-(3-(2-Chloro-4-(trifluoromethoxy)phenyl)azetidine-1-carbonyl)hexahydro-2H-pyrido[4,3-b][1,4]oxazin-3(4H)-one]	18
O=C1CO[C@H]2CCN(C(=O)N3CC(c4ccc(C56CC(C5)C6)cc4)C3)C[C@H]2N1 [Example 206, (4aR,8aS)-6-(3-(4-(Bicyclo[1.1.1]pentan-1-yl)phenyl)azetidine-1-carbonyl)hexahydro-2H-pyrido[4,3-b][1,4]oxazin-3(4H)-one]	5
O=C1CO[C@H]2CCN(C(=O)N3CC(c4ccc(N5CCCC5C(F)(F)F)cn4)C3)C[C@H]2N1 (stereo partly drawn) [Example 207, (4aR,8aS)-6-(3-(5-(2-(Trifluoromethyl)pyrrolidin-1-yl)pyridin-2-yl)azetidine-1-carbonyl)hexahydro-2H-pyrido[4,3-b][1,4]oxazin-3(4H)-one]	6

Reference: patent US20230117324A1, “OXAZINE MONOACYLGLYCEROL LIPASE (MAGL) INHIBITORS” (Hoffmann-La Roche Inc., priority 2018, published 2023)
